Several values for one entry are separate records, joined by “and”; a condition that tells them apart may be missing. Equal entries are not always repeated. Where two headings read alike, the source gives them in different places.
How the values were obtained:
FLT3-ITD = target: T1, FLT3-ITD (Homo sapiens, UniProt P36888, ITD); test: Kinase inhibition assay FLT3-ITD; format: biochemical
T1 sequence (P36888 27-993): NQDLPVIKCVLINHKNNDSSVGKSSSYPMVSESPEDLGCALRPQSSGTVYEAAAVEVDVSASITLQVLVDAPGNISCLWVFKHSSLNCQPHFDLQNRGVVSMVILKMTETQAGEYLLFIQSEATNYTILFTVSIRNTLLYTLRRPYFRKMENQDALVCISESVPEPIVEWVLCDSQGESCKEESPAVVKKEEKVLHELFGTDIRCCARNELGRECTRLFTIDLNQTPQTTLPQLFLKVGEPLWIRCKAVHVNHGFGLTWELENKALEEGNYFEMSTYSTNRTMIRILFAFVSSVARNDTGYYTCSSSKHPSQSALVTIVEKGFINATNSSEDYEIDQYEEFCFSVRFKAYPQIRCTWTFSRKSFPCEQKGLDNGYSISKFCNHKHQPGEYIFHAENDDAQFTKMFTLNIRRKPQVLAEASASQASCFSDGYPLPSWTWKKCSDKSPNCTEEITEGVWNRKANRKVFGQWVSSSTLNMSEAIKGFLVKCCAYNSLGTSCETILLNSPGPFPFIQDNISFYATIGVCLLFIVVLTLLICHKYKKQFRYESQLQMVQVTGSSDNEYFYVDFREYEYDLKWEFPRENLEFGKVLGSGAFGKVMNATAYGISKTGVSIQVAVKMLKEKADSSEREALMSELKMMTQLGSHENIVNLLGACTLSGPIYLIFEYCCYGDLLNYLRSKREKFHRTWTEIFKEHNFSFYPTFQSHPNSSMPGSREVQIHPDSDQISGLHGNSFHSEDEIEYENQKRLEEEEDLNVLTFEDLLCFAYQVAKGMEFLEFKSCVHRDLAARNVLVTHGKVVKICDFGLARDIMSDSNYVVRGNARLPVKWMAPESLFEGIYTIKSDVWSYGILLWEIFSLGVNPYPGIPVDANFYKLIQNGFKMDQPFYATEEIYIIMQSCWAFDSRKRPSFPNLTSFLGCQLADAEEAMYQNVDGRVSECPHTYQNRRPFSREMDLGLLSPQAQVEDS
Experimental: (§1) Newly prepared compounds 12–15 were assayed for inhibition of FLT3-ITD kinase as well as CDK4 and CDK2, known off-targets of structurally related compounds. We observed that CDK4 was sensitive to nearly all compounds with IC50 values in mid-nanomolar values.
(§2) CDK/cyclin complexes and FLT3 kinases were assayed as previously described. Protein kinase selectivity was evaluated at a single concentration (1 µM) by screening against 30 enzymes at Eurofins Discovery (France).

CDK4/D1 = CDK4/D1 (Homo sapiens, UniProt P11802); test: Kinase inhibition assay CDK4/D1; format: biochemical
Experimental: as §1, §2

CDK4 = target: T2, CDK4 (Homo sapiens, UniProt P11802); test: Kinase selectivity panel at 1 µM (Eurofins), CDK4; format: biochemical
T2 construct: purchased Eurofins Discovery (France)
Experimental: (§3) Three representative compounds (14d, 14e, and 15a) were profiled in a 1 µM concentration against 30 kinases that were selected as known off-targets of approved CDK4/6 inhibitors. […] Additional sensitive kinases include STK16, EphA1, MEKK2, SRC, and MER (≤10% of residual enzyme activities), which are not targets of the structurally similar CDK4/6 inhibitor, trilaciclib. We also screened compound 15a, an analogue of 14d, bearing isopropyl at position 7 of the purine instead of the methyl group. This change rapidly diminished the potency against CDK4 (dropped to 90% of residual enzyme activity), but the preference for FLT3 remained (1st rank) (Figure 2).
as §2

FLT3 = target: T3, FLT3 (Homo sapiens, UniProt P36888); test: Kinase selectivity panel at 1 µM (Eurofins), FLT3; format: biochemical; settings: 30 kinases
T3 construct: purchased Eurofins Discovery (France)
T3 sequence (P36888 27-993): T1 sequence (P36888 27-993)
Experimental: as §3, §2

CDK2/E = CDK2/E (Homo sapiens, UniProt P24941); test: Kinase inhibition assay CDK2/E; format: biochemical
Experimental: as §1, §2

MV4-11 cells = test: Resazurin-based viability assay, MV4-11; format: cell-based, Human; settings: for GI50: Homo sapiens, MV4-11, 72 h, resazurin, at least duplicate experiments
Source text: (§4) In parallel to kinase assays, we measured the effect of compounds on the viability of cancer cell lines MV4-11 and K562 using a resazurin-based assay. MV4-11 is an AML cell line dependent on a constitutively activated FLT3-ITD kinase with high sensitivity to FLT3 inhibition, K562 cells (chronic myelogenous leukemia) are independent on FLT3.
(§5) Human cell lines were obtained from the European Collection of Authenticated Cell Cultures (K562) and Cell lines service (MV4-11) and were cultivated according to the provider’s instructions. Briefly, cells were maintained in RPMI-1640 (MV4-11) or DMEM (K562) supplemented with 10% fetal bovine serum, penicillin (100 U/mL), and streptomycin (0.1 mg/mL) at 37 °C in 5% CO2. For the viability assays, cells were treated in triplicate with six different doses of each compound for 72 h. After treatments, the resazurin (Sigma Aldrich, St. Louis, MO, USA) solution was added for 4 h, and the fluorescence of resorufin corresponding to live cells was measured at 544/590 nm (excitation/emission) using a Fluoroskan Ascent microplate reader (Labsystems). The GI50 value, the drug concentration lethal to 50% of the cells, was calculated from the dose-response curves that resulted from the assays.

K562 cells = test: Resazurin-based viability assay, K562; format: cell-based; settings: Homo sapiens, 72 h, at least duplicate experiments
Source text: as §4, §5

Src = target: T4, Src (Homo sapiens, UniProt P12931); test: Kinase selectivity panel at 1 µM (Eurofins), Src; format: biochemical; settings: read-out: residual enzyme activity Src
T4 construct: purchased Eurofins Discovery (France)
Experimental: as §3, §2

STK16 = target: T5, STK16 (Homo sapiens, UniProt O75716); test: Kinase selectivity panel at 1 µM (Eurofins), STK16; format: biochemical; settings: read-out: residual enzyme activity STK16
T5 construct: purchased Eurofins Discovery (France)
Experimental: as §3, §2

[1] = at least duplicate experiments, read-out: IC50 FLT3-ITD
[2] = at least duplicate experiments, read-out: IC50 CDK4/D1
[3] = at least duplicate experiments, read-out: IC50 CDK2/E

T4 sequence (P12931 whole entry): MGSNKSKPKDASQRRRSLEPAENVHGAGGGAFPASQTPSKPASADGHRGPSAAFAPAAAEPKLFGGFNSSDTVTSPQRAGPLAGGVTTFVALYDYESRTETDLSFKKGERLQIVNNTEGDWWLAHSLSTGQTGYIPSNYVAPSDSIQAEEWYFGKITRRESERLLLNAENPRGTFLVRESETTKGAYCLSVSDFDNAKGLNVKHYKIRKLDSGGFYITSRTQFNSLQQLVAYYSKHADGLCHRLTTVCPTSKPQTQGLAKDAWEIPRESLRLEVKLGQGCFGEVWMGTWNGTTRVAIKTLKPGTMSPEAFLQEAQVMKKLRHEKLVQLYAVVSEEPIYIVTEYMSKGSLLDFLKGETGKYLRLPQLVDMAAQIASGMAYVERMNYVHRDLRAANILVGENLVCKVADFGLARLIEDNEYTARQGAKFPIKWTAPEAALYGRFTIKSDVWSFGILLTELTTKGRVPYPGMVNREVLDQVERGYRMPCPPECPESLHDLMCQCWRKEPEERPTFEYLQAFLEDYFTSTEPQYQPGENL
T2 sequence (P11802 whole entry): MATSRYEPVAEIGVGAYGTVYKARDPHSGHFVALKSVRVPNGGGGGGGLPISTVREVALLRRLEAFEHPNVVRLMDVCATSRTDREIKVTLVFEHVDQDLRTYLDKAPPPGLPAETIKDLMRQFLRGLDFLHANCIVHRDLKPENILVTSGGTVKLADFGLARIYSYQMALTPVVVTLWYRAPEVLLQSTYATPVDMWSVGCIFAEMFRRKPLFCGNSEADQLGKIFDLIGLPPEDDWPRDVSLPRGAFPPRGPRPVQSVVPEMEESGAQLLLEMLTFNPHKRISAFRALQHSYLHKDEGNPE
T2 sequence (P30281 whole entry partner): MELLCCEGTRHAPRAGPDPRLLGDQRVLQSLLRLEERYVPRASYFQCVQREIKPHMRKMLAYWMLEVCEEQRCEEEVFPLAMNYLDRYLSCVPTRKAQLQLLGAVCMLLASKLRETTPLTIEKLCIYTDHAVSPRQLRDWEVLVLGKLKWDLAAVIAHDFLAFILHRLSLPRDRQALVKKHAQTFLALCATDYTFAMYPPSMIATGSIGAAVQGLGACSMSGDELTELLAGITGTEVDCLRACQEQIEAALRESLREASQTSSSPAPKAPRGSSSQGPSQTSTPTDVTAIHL
CDK4/D1, sequence (P11802 whole entry): as the sequence (P11802 whole entry) above
CDK4/D1, sequence (P24385 whole entry partner): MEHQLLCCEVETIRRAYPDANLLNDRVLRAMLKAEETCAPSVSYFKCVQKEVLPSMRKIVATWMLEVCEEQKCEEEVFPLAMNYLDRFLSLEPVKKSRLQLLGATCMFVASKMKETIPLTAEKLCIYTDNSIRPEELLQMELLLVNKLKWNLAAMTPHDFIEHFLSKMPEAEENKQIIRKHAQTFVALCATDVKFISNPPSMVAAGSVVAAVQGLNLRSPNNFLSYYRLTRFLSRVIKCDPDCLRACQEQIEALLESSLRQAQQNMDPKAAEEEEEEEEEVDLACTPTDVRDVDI
T5 sequence (O75716 whole entry): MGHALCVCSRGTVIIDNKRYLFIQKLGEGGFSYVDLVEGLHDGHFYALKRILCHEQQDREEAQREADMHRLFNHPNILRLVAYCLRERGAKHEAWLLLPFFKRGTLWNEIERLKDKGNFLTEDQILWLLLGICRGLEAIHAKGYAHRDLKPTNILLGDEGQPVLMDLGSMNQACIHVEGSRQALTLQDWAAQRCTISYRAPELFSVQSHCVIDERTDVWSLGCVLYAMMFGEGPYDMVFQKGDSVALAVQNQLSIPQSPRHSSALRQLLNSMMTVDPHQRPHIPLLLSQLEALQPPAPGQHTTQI

IC50 (FLT3-ITD; [1]) [µM] | IC50 (CDK4/D1; [2]) [µM] | remaining activity at 1 µM (CDK4; read-out: residual enzyme activity CDK4) [%] | FLT3 inhibition in selectivity panel (FLT3) | IC50 (CDK2/E; [3]) | GI50 (MV4-11 cells) [µM] | GI50 (K562 cells) [µM] | remaining activity at 1 µM (Src) [%] | IC50 (FLT3-ITD; read-out: IC50 FLT3) [µM] | IC50 (CDK4/D1; read-out: IC50 CDK4) [µM] | CDK4 inhibition in selectivity panel (CDK4) | IC50 (CDK2/E; read-out: IC50 CDK2) [µM] | remaining activity at 1 µM (STK16) [%] | Structure (SMILES) | selectivity index (ratio for GI50's of K562 and MV4-11 cells) (MV4-11 cells; K562 / MV4-11)
0.037 | 1.9 | 90 | 1st rank | 5.06 µM | 0.05 | 0.58 | ≤ 10 |  |  |  |  |  | CC(C)n1c(=O)n(C2CCCC2)c2nc(Nc3ccc(N4CCNCC4)cc3)ncc21 [15a, 9-cyclopentyl-7-isopropyl-2-((4-(piperazin-1-yl)phenyl)amino)-7,9-dihydro-8H-purin-8-one] | 
0.068 | 0.02 |  | potent CDK4 and FLT3 inhibitors | 0.3 µM | 0.2 | 4.53 | ≤ 10 | ≤ 0.3 | ≤ 0.3 | potent CDK4 and FLT3 inhibitors | ≤ 0.3 | ≤ 10 | Cn1c(=O)n(C2CCCCC2)c2nc(Nc3ccc(N4CCNCC4)cc3)ncc21 [14e] | > 20
0.083 | 0.157 |  | potent CDK4 and FLT3 inhibitors | > 1 µM and 1.82 µM | 0.12 | 0.96 | ≤ 10 |  |  | potent CDK4 and FLT3 inhibitors |  | ≤ 10 | Cn1c(=O)n(C2CCCC2)c2nc(Nc3ccc(N4CCNCC4)cc3)ncc21 [14d] | 

Reference: paper PMC9782245, “Synthesis and Structural Optimization of 2,7,9-Trisubstituted purin-8-ones as FLT3-ITD Inhibitors” (International Journal of Molecular Sciences, 2022)
